In ChEMBL document CHEMBL1156393, “Pibocin B, the first N-O-methylindole marine alkaloid, a metabolite from the Far-Eastern ascidian Eudistoma species” (2001):
≈ marks a conversion by molar mass, not a printed value.

Assay: Cytotoxicity against mouse EAC cells
Type: functional
Conditions: Ehrlich, read-out: ED50 (the source's name)

## COn1c(Br)c2c3c(cccc31)[C@H]1C[C@@H](C)CN(C)[C@@H]1C2 [PIBOCIN B]
  EC50: 25 µg/mL (≈ 71.6 µM)
